Reference: US4065616A, “Processes for production of a 1-N-(α-hydroxy-.PHI.-amino alkanoyl)-3-deoxy-5-O-pentafuranosyl neamine and new compounds produced by the same processes” (Zaidan Hojin Biseibutsu Kagaku Kenkyu Kai, priority 1975, dated 1977)
Values after ≈ are worked out from the molar mass of the structure shown. Where two headings read alike, the source gives them in different places.

Columns and labels:
[1] = tested on: Pseudomonas aeruginosa TI-13; test: M.I.C. by standard serial dilution method; type: cell-based; conditions: TI13, P. aeruginosa TI-13, nutrient agar, 37° C, 18 hours, read-out: minimum inhibitory concentration (M.I.C.)
Description: (§1) These particular compounds, that is, 1-n-(α-hydroxy-ω-aminoalkanoyl)-3'-deoxy-5-O-pentofuranosylneamines according to the aforesaid general formula (I) have useful antibacterial activity against a wide variety of bacteria, including gram-negative bacteria and gram-positive bacteria. The minimum inhibitory concentration (M.I.C.) (mcg/ml) of these compounds against various organisms was determined by a standard serial dilution method at an incubation temperature of 37° C, the estimation being made after 18 hours incubation or each test organism, except that the incubation time was 48 hours for Mycobacterium smegmatis. The incubation medium used was nutrient agar.

[2] = tested on: Pseudomonas aeruginosa No. 12; test: M.I.C. by standard serial dilution method; type: cell-based; conditions: P. aeruginosa No. 12, nutrient agar, 37° C, 18 hours, read-out: minimum inhibitory concentration (M.I.C.)
Description: as §1

[3] = tested on: Pseudomonas aeruginosa A3; test: M.I.C. by standard serial dilution method; type: cell-based; conditions: P. aeruginosa A3, nutrient agar, 37° C, 18 hours, read-out: minimum inhibitory concentration (M.I.C.)
Description: as §1

[4] = tested on: Escherichia coli K-12 LA 290 R55; test: M.I.C. by standard serial dilution method; type: cell-based; conditions: K12LA290R55, 18 h, read-out: minimum inhibitory concentration (M.I.C.)
Description: as §1

[5] = tested on: Escherichia coli K-12 LA 290 R64; test: M.I.C. by standard serial dilution method; type: cell-based; conditions: K12LA290R64, 18 h, read-out: minimum inhibitory concentration (M.I.C.)
Description: as §1

Bacillus subtilis B-558 = test: M.I.C. by standard serial dilution method; type: cell-based; conditions: read-out: minimum inhibitory concentration (M.I.C.)
Description: as §1

[6] = tested on: Escherichia coli K-12 JR66/W677; test: M.I.C. by standard serial dilution method; type: cell-based; conditions: K12JR66/W677, 18 h, read-out: minimum inhibitory concentration (M.I.C.)
Description: as §1

Escherichia coli NIHJ = test: M.I.C. by standard serial dilution method; type: cell-based; conditions: read-out: minimum inhibitory concentration (M.I.C.)
Description: as §1

[7] = tested on: Escherichia coli K-12 ML 1410; test: M.I.C. by standard serial dilution method; type: cell-based; conditions: K12ML1410, E. coli K-12 ML 1410, nutrient agar, 37° C, 18 hours, read-out: minimum inhibitory concentration (M.I.C.)
Description: as §1

[8] = tested on: Escherichia coli K-12 W677; test: M.I.C. by standard serial dilution method; type: cell-based; conditions: read-out: minimum inhibitory concentration (M.I.C.)
Description: as §1

[9] = tested on: Escherichia coli K-12 ML 1629; test: M.I.C. by standard serial dilution method; type: cell-based; conditions: read-out: minimum inhibitory concentration (M.I.C.)
Description: as §1

Salmonella typhosa T-63 = test: M.I.C. by standard serial dilution method; type: cell-based; conditions: Salmonella enterica, 18 h, read-out: minimum inhibitory concentration (M.I.C.)
Description: as §1

[10] = tested on: Escherichia coli K-12 ML 1410 R81; test: M.I.C. by standard serial dilution method; type: cell-based; conditions: 18 h, read-out: minimum inhibitory concentration (M.I.C.)
Description: as §1

[11] = tested on: Staphylococcus aureus FDA 209P; test: M.I.C. by standard serial dilution method; type: cell-based; conditions: FDA209P, read-out: minimum inhibitory concentration (M.I.C.)
Description: as §1

Proteus rettgeri GN 466 = test: M.I.C. by standard serial dilution method; type: cell-based; conditions: Providencia rettgeri, read-out: minimum inhibitory concentration (M.I.C.)
Description: as §1

[12] = tested on: Pseudomonas aeruginosa GN 315; test: M.I.C. by standard serial dilution method; type: cell-based; conditions: GN315, P. aeruginosa GN 315, nutrient agar, 37° C, 18 hours, read-out: minimum inhibitory concentration (M.I.C.)
Description: as §1

[13] = tested on: Escherichia coli K-12 LA 290 R56; test: M.I.C. by standard serial dilution method; type: cell-based; conditions: K12LA290R56, 18 h, read-out: minimum inhibitory concentration (M.I.C.)
Description: as §1

Sarcina lutea PCl 1001 = test: M.I.C. by standard serial dilution method; type: cell-based; conditions: Micrococcus luteus, PCL1001, nutrient agar, 37° C, 18 hours, read-out: minimum inhibitory concentration (M.I.C.)
Description: as §1

[14] = tested on: Escherichia coli K-12 ML 1630; test: M.I.C. by standard serial dilution method; type: cell-based; conditions: K12ML1630, E. coli K-12 ML 1630, nutrient agar, 37° C, 18 hours, read-out: minimum inhibitory concentration (M.I.C.)
Description: as §1

Escherichia coli K-12 = test: M.I.C. by standard serial dilution method; type: cell-based; conditions: read-out: minimum inhibitory concentration (M.I.C.)
Description: as §1

Proteus rettgeri GN 311 = test: M.I.C. by standard serial dilution method; type: cell-based; conditions: Providencia rettgeri, GN311, nutrient agar, 37° C, 18 hours, read-out: minimum inhibitory concentration (M.I.C.)
Description: as §1

[15] = tested on: Pseudomonas aeruginosa 99; test: M.I.C. by standard serial dilution method; type: cell-based; conditions: P. aeruginosa 99, nutrient agar, 37° C, 18 hours, read-out: minimum inhibitory concentration (M.I.C.)
Description: as §1

[16] = tested on: Klebsiella pneumoniae PCI 602; test: M.I.C. by standard serial dilution method; type: cell-based; conditions: read-out: minimum inhibitory concentration (M.I.C.)
Description: as §1

[17] = tested on: Klebsiella pneumoniae Type 22, No. 3038; test: M.I.C. by standard serial dilution method; type: cell-based; conditions: read-out: minimum inhibitory concentration (M.I.C.)
Description: as §1

[18] = tested on: Mycobacterium smegmatis ATCC 607; test: M.I.C. by standard serial dilution method; type: cell-based; conditions: Mycolicibacterium smegmatis, ATCC607, nutrient agar, 37° C, 48 hours, read-out: minimum inhibitory concentration (M.I.C.)
Description: as §1

[19] = tested on: kanamycin-resistant bacteria; conditions: in words, prior work; cited from earlier work
[20] = clinical tests, in words; cited from earlier work
[21] = B558, B. subtilis B-558, nutrient agar, 37° C, 18 hours
[22] = E. coli NIHJ, nutrient agar, 37° C, 18 hours
[23] = K12W677, E. coli K-12 W677, nutrient agar, 37° C, 18 hours
[24] = S. aureus FDA 209P, nutrient agar, 37° C, 18 hours
[25] = GN466, Proteus rettgeri GN 466, nutrient agar, 37° C, 18 hours
[26] = K12, E. coli K-12, nutrient agar, 37° C, 18 hours

| Structure (SMILES) | MIC [1] [µg/mL] | MIC [2] [µg/mL] | MIC [3] [µg/mL] | MIC [4] [µg/mL] | MIC [5] [µg/mL] | MIC (Bacillus subtilis B-558; [21]) [µg/mL] | MIC [6] [µg/mL] | MIC (Escherichia coli NIHJ; [22]) [µg/mL] | MIC [7] [µg/mL] | MIC [8, 23] [µg/mL] | MIC (Salmonella typhosa T-63) [µg/mL] | MIC [10] [µg/mL] | MIC [11, 24] [µg/mL] | MIC [12] [µg/mL] | MIC [13] [µg/mL] | MIC (Sarcina lutea PCl 1001) [µg/mL] | MIC [14] [µg/mL] | MIC (Proteus rettgeri GN 311) [µg/mL] | MIC [15] [µg/mL] | MIC [18] [µg/mL] | further results |
| --- | --- | --- | --- | --- | --- | --- | --- | --- | --- | --- | --- | --- | --- | --- | --- | --- | --- | --- | --- | --- | --- |
| NCC[C@H](O)C(=O)N[C@@H]1C[C@H](N)[C@@H](O[C@H]2O[C@H](CN)[C@@H](O)C[C@H]2N)[C@H](O[C@@H]2O[C@@H](CO)[C@H](O)[C@H]2O)[C@H]1O [Compound No. 3, 1-N-((S)-4-amino-2-hydroxybutyryl)-3'-deoxy-5-O-α-L-arabinofuranosylneamine] | 25 (≈ 46.3 µM) | 12.5 (≈ 23.2 µM) | 0.78 (≈ 1.45 µM) | 1.56 (≈ 2.89 µM) | 0.2 (≈ 0.371 µM) | 0.2 (≈ 0.371 µM) | 1.56 (≈ 2.89 µM) | 0.78 (≈ 1.45 µM) | 0.78 (≈ 1.45 µM) | 0.39 (≈ 0.723 µM) | 0.78 (≈ 1.45 µM) | 1.56 (≈ 2.89 µM) | 0.39 (≈ 0.723 µM) | > 100 | 0.39 (≈ 0.723 µM) | 25 (≈ 46.3 µM) | 0.78 (≈ 1.45 µM) | 3.12 (≈ 5.78 µM) | 6.25 (≈ 11.6 µM) | 0.2 (≈ 0.371 µM) | MIC ([9]; K12ML1629, E. coli K-12 ML 1629, nutrient agar, 37° C, 18 hours): 0.39 µg/mL (≈ 0.723 µM); MIC (Proteus rettgeri GN 466; [25]): 0.78 µg/mL (≈ 1.45 µM); MIC (Escherichia coli K-12; [26]): 0.39 µg/mL (≈ 0.723 µM); MIC ([16]; PCI602, K. pneumoniae PCI 602, nutrient agar, 37° C, 18 hours): 0.39 µg/mL (≈ 0.723 µM); MIC ([17]; K. pneumoniae Type 22, No. 3038, nutrient agar, 37° C, 18 hours): 0.39 µg/mL (≈ 0.723 µM) |
| NCC(O)C(=O)N[C@@H]1C[C@H](N)[C@@H](O[C@H]2O[C@H](CN)[C@@H](O)C[C@H]2N)[C@H](O[C@@H]2O[C@H](CO)[C@H](O)[C@H]2O)[C@H]1O (stereo partly drawn) [Compound No. 1, 1N-((RS)-3-amino-2-hydroxypropionyl)-3'-deoxy-5-O-β-D-xylofuranosylneamine] | 25 (≈ 47.6 µM) | 12.5 (≈ 23.8 µM) | 6.25 (≈ 11.9 µM) | 3.12 (≈ 5.94 µM) | 1.56 (≈ 2.97 µM) |  | 3.12 (≈ 5.94 µM) |  | 3.12 (≈ 5.94 µM) |  | 1.56 (≈ 2.97 µM) | 6.25 (≈ 11.9 µM) | 3.12 (≈ 5.94 µM) | > 100 | 3.12 (≈ 5.94 µM) | 25 (≈ 47.6 µM) | 3.12 (≈ 5.94 µM) | 12.5 (≈ 23.8 µM) | 12.5 (≈ 23.8 µM) | 0.39 (≈ 0.742 µM) | MIC (Bacillus subtilis B-558; B558, 18 h): 1.56 µg/mL (≈ 2.97 µM); MIC (Escherichia coli NIHJ; 18 h): 1.56 µg/mL (≈ 2.97 µM); MIC ([8]; K12W677, 18 h): 1.56 µg/mL (≈ 2.97 µM); MIC ([9]; K12ML1629, 18 h): 1.56 µg/mL (≈ 2.97 µM); MIC (Proteus rettgeri GN 466; [25]): 3.12 µg/mL (≈ 5.94 µM); MIC (Escherichia coli K-12; K12, 18 h): 1.56 µg/mL (≈ 2.97 µM); MIC ([16]; PCI602, 18 h): 1.56 µg/mL (≈ 2.97 µM); MIC ([17]; 18 h): 1.56 µg/mL (≈ 2.97 µM) |
| NC[C@H](O)C(=O)N[C@@H]1C[C@H](N)[C@@H](O[C@H]2O[C@H](CN)[C@@H](O)C[C@H]2N)[C@H](O[C@@H]2O[C@H](CO)[C@H](O)[C@H]2O)[C@H]1O [Compound No. 2, 1-n-((S)-3-amino-2-hydroxypropionyl)-3'-deoxy-5-O-β-D-xylofuranosylneamine] | 25 (≈ 47.6 µM) | 12.5 (≈ 23.8 µM) | 3.12 (≈ 5.94 µM) | 0.78 (≈ 1.48 µM) | 0.78 (≈ 1.48 µM) | 0.78 (≈ 1.48 µM) | 0.78 (≈ 1.48 µM) | 0.78 (≈ 1.48 µM) | 3.12 (≈ 5.94 µM) | 0.78 (≈ 1.48 µM) | 0.78 (≈ 1.48 µM) | 3.12 (≈ 5.94 µM) |  | > 100 | 0.78 (≈ 1.48 µM) | 25 (≈ 47.6 µM) | 1.56 (≈ 2.97 µM) | 6.25 (≈ 11.9 µM) | 12.5 (≈ 23.8 µM) | 0.39 (≈ 0.742 µM) | MIC ([9]; K12ML1629, 18 h): 1.56 µg/mL (≈ 2.97 µM); MIC ([11]; 18 h): 1.56 µg/mL (≈ 2.97 µM); MIC (Proteus rettgeri GN 466; GN466, 18 h): 1.56 µg/mL (≈ 2.97 µM); MIC (Escherichia coli K-12; [26]): 0.39 µg/mL (≈ 0.742 µM); MIC ([16]; PCI602, 18 h): 1.56 µg/mL (≈ 2.97 µM); MIC ([17]; 18 h): 1.56 µg/mL (≈ 2.97 µM) |
| NC[C@@H]1CC[C@@H](N)[C@@H](O[C@H]2[C@H](O)[C@@H](O[C@H]3O[C@H](CO)[C@@H](O)[C@H](N)[C@H]3O)[C@H](N)C[C@@H]2N)O1 [DKB, 3',4'-dideoxykanamycin B] |  |  |  |  |  |  |  |  |  |  |  |  |  |  |  |  |  |  |  |  | antibacterial activity against resistant bacteria [19]: high antibacterial activity against the above-mentioned resistant bacteria; clinical usefulness [20]: very useful and effective semi-synthetic antibiotic in clinical tests |
